Test results taken from patent US20250082752A1, “COMPOUNDS, TARGETS, AND METHODS FOR MODULATING LYTIC GRANULE CONVERGENCE IN CYTOTOXIC CELLS TO PROMOTE BYSTANDER KILLING IN CELLULAR THERAPIES” (THE TRUSTEES OF COLUMBIA UNIVERSITY IN THE CITY OF NEW YORK, priority 2022, published 2025).

Columns and labels:
Assay type in all cases: cell-based
[1] = test system: YTS cells; assay: Number of MTOC (alpha-tubulin hyper densities) in YTS cells treated with PLK4 inhibitors; settings: 5 days, Centrinone 5 nM or CFI400495 50 nM
Experimental: (§1) Centrinone and CFI400495 are high affinity and selective PLK4 inhibitors that induce depletion of the centrosome and cell cycle arrest. YTS cells were treated for 5 days with Centrinone 5 nM or CFI400495 50 nM. […] For this experiment, 5×10^5 cells/ml YTS cells were incubated during 5 days Centrinone 5 nM or CFI400495 50 nM, every 24 hours the media were replaced with fresh media containing similar amounts of the drug. On day 5, cells were assessed by microscopy for gamma-tubulin or alpha-tubulin.

[2] = test system: YTS cells; assay: CD107a degranulation of treated YTS cells after conjugation with 721.221 target cells; settings: 5 days, Centrinone 5 nM or CFI400495 50 nM
Experimental: CD107a (also known as LAMP-1) is the standard to measure the process of degranulation. The more CD107a is expressed on the surface of the cell after stimulation, the more granules have been released. This is limited to the immunological synapse, in part secondary to the convergence process. CD107a upregulation is measured via flow cytometry after PMA/lonomycin activation and can be measured following target cell conjugation. […] The latter requires synapse formation and engagement of receptors for downstream activation signaling. Differences in results between these two approaches (target cell conjugation versus PMA/lonomycin) map the candidate's impact to early (synapse formation and signaling) or late (mechanics of) degranulation.
as §1

[3] = test system: YTS cells; assay: Confocal microscopy of granule dispersion in YTS cells after Centrinone or CFI400495; settings: YTS cells after treatment with Centrinone or CFI400495
Experimental: as §1

Structure (SMILES): COc1ccc2c(c1)[C@]1(C[C@H]1c1ccc3c(/C=C/c4ccc(CN5C[C@@H](C)O[C@@H](C)C5)cc4)n[nH]c3c1)C(=O)N2.O=C(O)/C=C/C(=O)O [CFI400495, Spiro[cyclopropane-1,3′-[3H]indol]-2′(1′H)-one, 2-[3-[(E)-2-[4-[[(2R,6S)-2,6-dimethyl-4-morpholinyl]methyl]phenyl]ethenyl]-1H-indazol-6-yl]-5′-methoxy-, (1R,2S)-, (2E)-2-butenedioate (1:1)]
- number of MTOC (alpha Tubulin hyper densities) [1]: increase number of mTOC
- degranulation (CD107a expression) [2]: increases degranulation
- granule dispersion (confocal microscopy images) [3]: more disperse granules
